Tests used:
Assay in all cases: relative viability (nuclei count vs DMSO), 5 days (fraction); higher = more cells survive
[1] = test system: HOP-62
Outline: (§1)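 Lung cancer cell lines were seeded in 1536-well plates and dosed by pin tool the next day, with either a single drug or a fixed anchor-drug dose combined with five library-drug doses (not always all listed) spaced in √10 steps. Five days later, one step fixed the cells and stained their nuclei (final 0.05% Triton X-100, 1% formaldehyde, 1 ug/ml Hoechst), and nuclei were counted on 4× images. Relative viability is the nuclei count in treated wells divided by the count in vehicle wells, and each value is the median of duplicate plates.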

[2] = test system: NCI-H647
Outline: as §1

[3] = test system: ABC-1
Outline: as §1

[4] = test system: HCC-827
Outline: as §1

[5] = test system: NCI-H596
Outline: as §1

[6] = test system: NCI-H2170
Outline: as §1

[7] = test system: NCI-H1563
Outline: as §1

[8] = test system: BEN
Outline: as §1

[9] = test system: NCI-H358
Outline: as §1

[10] = test system: NCI-H322M
Outline: as §1

[11] = test system: NCI-H1666
Outline: as §1

[12] = test system: NCI-H838
Outline: as §1

[13] = test system: NCI-H520
Outline: as §1

[14] = test system: PC-14
Outline: as §1

[15] = test system: LU99A
Outline: as §1

[16] = test system: UMC-11
Outline: as §1

[17] = test system: NCI-H1792
Outline: as §1

[18] = test system: EPLC-272H
Outline: as §1

[19] = test system: NCI-H727
Outline: as §1

[20] = test system: NCI-H23
Outline: as §1

[21] = test system: NCI-H1355
Outline: as §1

[22] = test system: NCI-H2405
Outline: as §1

[23] = test system: NCI-H1975
Outline: as §1

[24] = test system: NCI-H3122
Outline: as §1

Compound `CCCCCCCCCCCC1=C(O)C(=O)C=C(O)C1=O` [Embelin] + CS(=O)(=O)CCNCc1ccc(-c2ccc3ncnc(Nc4ccc(OCc5cccc(F)c5)c(Cl)c4)c3c2)o1 [Lapatinib] (partner 2 µM) has a relative viability ([1]; first compound 0.08 µM) of 1.01, a relative viability ([1]; first compound 0.8 µM) of 1.08 and a relative viability ([1]; first compound 2.53 µM) of 1.1. The relative viability ([1]; first compound 8 µM) was 0.908, the relative viability ([2]; first compound 0.08 µM) was 1.08 and the relative viability ([2]; first compound 0.8 µM) was 1.38. It also gave a relative viability ([2]; first compound 2.53 µM) of 1.89, a relative viability ([2]; first compound 8 µM) of 1.17 and a relative viability ([3]; first compound 0.08 µM) of 1.28. For the same compound, the relative viability ([3]; first compound 0.8 µM) was 1.7, the relative viability ([3]; first compound 2.53 µM) was 1.25 and the relative viability ([3]; first compound 8 µM) was 1.1. It also gave a relative viability ([4]; first compound 0.08 µM) of 0.157, a relative viability ([4]; first compound 0.8 µM) of 0.176 and a relative viability ([4]; first compound 2.53 µM) of 0.179. The relative viability ([4]; first compound 8 µM) was 0.197, the relative viability ([5]; first compound 0.08 µM) was 1.17 and the relative viability ([5]; first compound 0.8 µM) was 1.07. For the same compound, the relative viability ([5]; first compound 2.53 µM) was 1.12, the relative viability ([5]; first compound 8 µM) was 1.17 and the relative viability ([6]; first compound 0.08 µM) was 0.276. The relative viability ([6]; first compound 0.8 µM) was 0.282, the relative viability ([6]; first compound 2.53 µM) was 0.275 and the relative viability ([6]; first compound 8 µM) was 0.253. For the same compound, the relative viability ([7]; first compound 0.08 µM) was 0.869, the relative viability ([7]; first compound 0.8 µM) was 1.11 and the relative viability ([7]; first compound 2.53 µM) was 0.838. It also gave a relative viability ([7]; first compound 8 µM) of 0.839, a relative viability ([8]; first compound 0.08 µM) of 0.697 and a relative viability ([8]; first compound 0.8 µM) of 0.887. It also gave a relative viability ([8]; first compound 2.53 µM) of 0.805, a relative viability ([8]; first compound 8 µM) of 0.73 and a relative viability ([9]; first compound 0.08 µM) of 0.452. For the same compound, the relative viability ([9]; first compound 0.8 µM) was 0.525, the relative viability ([9]; first compound 2.53 µM) was 0.47 and the relative viability ([9]; first compound 8 µM) was 0.384. It also gave a relative viability ([10]; first compound 0.08 µM) of 0.548, a relative viability ([10]; first compound 0.8 µM) of 0.614 and a relative viability ([10]; first compound 2.53 µM) of 0.726. It also gave a relative viability ([10]; first compound 8 µM) of 0.561, a relative viability ([11]; first compound 0.08 µM) of 0.603 and a relative viability ([11]; first compound 0.8 µM) of 0.795. It also gave a relative viability ([11]; first compound 2.53 µM) of 0.761, a relative viability ([11]; first compound 8 µM) of 0.616 and a relative viability ([12]; first compound 0.08 µM) of 1.07. The relative viability ([12]; first compound 0.8 µM) was 1.31, the relative viability ([12]; first compound 2.53 µM) was 1.02 and the relative viability ([12]; first compound 8 µM) was 1.14. For the same compound, the relative viability ([13]; first compound 0.08 µM) was 0.946, the relative viability ([13]; first compound 0.8 µM) was 0.729 and the relative viability ([13]; first compound 2.53 µM) was 0.936. For the same compound, the relative viability ([13]; first compound 8 µM) was 0.862, the relative viability ([14]; first compound 0.08 µM) was 0.391 and the relative viability ([14]; first compound 0.8 µM) was 0.355. It also gave a relative viability ([14]; first compound 2.53 µM) of 0.347, a relative viability ([14]; first compound 8 µM) of 0.353 and a relative viability ([15]; first compound 0.08 µM) of 0.999. It also gave a relative viability ([15]; first compound 0.8 µM) of 0.991, a relative viability ([15]; first compound 2.53 µM) of 1.12 and a relative viability ([15]; first compound 8 µM) of 0.855. It also gave a relative viability ([16]; first compound 0.08 µM) of 1.12, a relative viability ([16]; first compound 0.8 µM) of 1.17 and a relative viability ([16]; first compound 2.53 µM) of 1.08. The relative viability ([16]; first compound 8 µM) was 0.877, the relative viability ([17]; first compound 0.08 µM) was 0.917 and the relative viability ([17]; first compound 0.8 µM) was 0.877. The relative viability ([17]; first compound 2.53 µM) was 1.09, the relative viability ([17]; first compound 8 µM) was 1.06 and the relative viability ([18]; first compound 0.08 µM) was 0.899. For the same compound, the relative viability ([18]; first compound 0.8 µM) was 1.38, the relative viability ([18]; first compound 2.53 µM) was 1.01 and the relative viability ([18]; first compound 8 µM) was 0.816. The relative viability ([19]; first compound 0.08 µM) was 0.737, the relative viability ([19]; first compound 0.8 µM) was 0.753 and the relative viability ([19]; first compound 2.53 µM) was 1.13. The relative viability ([19]; first compound 8 µM) was 0.738, the relative viability ([20]; first compound 0.08 µM) was 1.17 and the relative viability ([20]; first compound 0.8 µM) was 1.2. For the same compound, the relative viability ([20]; first compound 2.53 µM) was 1.36, the relative viability ([20]; first compound 8 µM) was 1.07 and the relative viability ([21]; first compound 0.08 µM) was 0.878. For the same compound, the relative viability ([21]; first compound 0.8 µM) was 1.15, the relative viability ([21]; first compound 2.53 µM) was 1.07 and the relative viability ([21]; first compound 8 µM) was 0.686. For the same compound, the relative viability ([22]; first compound 0.08 µM) was 1.16, the relative viability ([22]; first compound 0.8 µM) was 1.48 and the relative viability ([22]; first compound 2.53 µM) was 1.06. The relative viability ([22]; first compound 8 µM) was 1.02, the relative viability ([23]; first compound 0.08 µM) was 0.807 and the relative viability ([23]; first compound 0.8 µM) was 0.951. For the same compound, the relative viability ([23]; first compound 2.53 µM) was 1.09, the relative viability ([23]; first compound 8 µM) was 0.872 and the relative viability ([24]; first compound 0.08 µM) was 1.02. The relative viability ([24]; first compound 0.8 µM) was 0.977, the relative viability ([24]; first compound 2.53 µM) was 0.956 and the relative viability ([24]; first compound 8 µM) was 1.09.

From the supplement of paper PMC10307832
